Results taken from US20050209278A1, “Piperidinyl- and piperazinyl-sulfonylmethyl hydroxamic acids and their use as protease inhibitors” (priority 2002, published 2005).

Assays:
MMP-1 = target: T1, MMP-1 (Homo sapiens, UniProt P03956); assay: In vitro MMP inhibition, Ki determination (fluorogenic substrate II); assay type: biochemical; conditions: value outside parentheses; read-out: MMP-1 Ki
T1 construct: made in house; host or cells: MMP-1-transfected HT-1080 cells (spent media)
T1 sequence (P03956 100-469): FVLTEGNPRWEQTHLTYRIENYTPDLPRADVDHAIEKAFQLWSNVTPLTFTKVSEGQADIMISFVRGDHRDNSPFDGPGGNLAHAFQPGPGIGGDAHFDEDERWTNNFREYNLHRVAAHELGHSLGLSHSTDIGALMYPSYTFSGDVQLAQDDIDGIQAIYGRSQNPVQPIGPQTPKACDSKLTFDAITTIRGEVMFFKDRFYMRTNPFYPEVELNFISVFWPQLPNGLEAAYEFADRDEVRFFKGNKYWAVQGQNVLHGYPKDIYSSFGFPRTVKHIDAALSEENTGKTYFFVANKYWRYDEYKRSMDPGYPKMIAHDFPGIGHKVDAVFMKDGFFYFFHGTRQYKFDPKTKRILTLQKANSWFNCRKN

MMP-13 = target: T2, MMP-13 (Homo sapiens, UniProt P45452); assay: as above; assay type: biochemical; conditions: value outside parentheses; read-out: MMP-13 Ki
T2 construct: made in house; host or cells: baculovirus / insect cells
Procedure, shortened: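 Ki determined with human recombinant MMP-13, baculovirus-expressed as proenzyme and activated with APMA. Fluorogenic MCA/Dpa substrate II at 4 μM (at or below Km) with low enzyme in Tris buffer pH 7.5 with CaCl2. Incubation was 1 h at room temperature, with fluorescence read at 330/420 nm.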

| Ki (MMP-1) | Ki (MMP-13) | Structure (SMILES) |
| --- | --- | --- |
| > 10000 nM | 0.12 nM | CCCCOc1ccc(N2CCN(S(=O)(=O)C3(C(=O)NO)CCN(CCOC)CC3)CC2)c(F)c1 [Example 284] |
| > 10000 nM | 2.06 nM | CCCCOc1ccc(N2CCN(S(=O)(=O)C3(C(=O)NO)CCN(Cc4ccccc4)CC3)CC2)cc1F [Example 285] |
| > 10000 nM | 5.97 nM | CCCCOc1ccc(N2CCN(S(=O)(=O)C3(C(=O)NO)CCNCC3)CC2)cc1F [Example 286] |
| > 10000 nM | 3.33 nM | COCCN1CCC(C(=O)NO)(S(=O)(=O)N2CCN(c3ccc(Oc4ccccc4)cc3)CC2)CC1 [Example 287] |
| > 10000 nM | 0.98 nM | CCCCOc1ccc(N2CCN(S(=O)(=O)C3(C(=O)NO)CCN(C(=O)CN)CC3)CC2)cc1 [Example 292] |
| > 10000 nM | 0.313 nM | CCCCOc1ccc(N2CCN(S(=O)(=O)C3(C(=O)NO)CCN(Cc4cccnc4)CC3)CC2)cc1F [Example 293] |
| > 10000 nM | 9.13 nM | CCCCOc1ccc(N2CCN(S(=O)(=O)C3(C(=O)NO)CCN(c4ccc(C)cc4)CC3)CC2)cc1 [Example 295] |
| > 10000 nM | 9.22 nM | CCCCOc1ccc(N2CCN(S(=O)(=O)C3(C(=O)NO)CCN(c4ccc(C)cc4)CC3)CC2)cc1F [Example 296] |
| > 10000 nM | 1.4 nM | COCCOc1ccc(N2CCN(S(=O)(=O)C3(C(=O)NO)CCN(C4CC4)CC3)CC2)cc1F [Example 297] |
| > 10000 nM | 0.702 nM | CCCCOc1ccc(N2CCN(S(=O)(=O)C3(C(=O)NO)CCN(CC4CC4)CC3)CC2)cc1 [Example 298] |
| > 10000 nM | 3.04 nM | Cc1cc(N2CCN(S(=O)(=O)C3(C(=O)NO)CCOCC3)CC2)ccc1OC(C)C [Example 299] |
| > 10000 nM | 42.7 nM | CS(=O)(=O)c1ccc(N2CCN(S(=O)(=O)C3(C(=O)NO)CCOCC3)CC2)cc1 [Example 300] |
| > 10000 nM | 0.23 nM | CCCCOc1ccc(N2CCN(S(=O)(=O)C3(C(=O)NO)CCN(C4CC4)CC3)CC2)cc1 [Example 301] |
| > 10000 nM | 0.46 nM | C#CCN1CCC(C(=O)NO)(S(=O)(=O)N2CCN(c3ccc(OCCCC)cc3)CC2)CC1 [Example 303] |
| 6700 nM | 0.136 nM | CCCCCc1ccc(C2CCN(S(=O)(=O)C3(C(=O)NO)CCOCC3)CC2)nc1 [Example 305] |
| 602 nM | 0.863 nM | O=C(NO)C1(S(=O)(=O)N2CCC(c3ccc(Br)cn3)CC2)CCOCC1 [Example 306] |
| 6810 nM | 0.654 nM | CCCCc1ccc(C2CCN(S(=O)(=O)C3(C(=O)NO)CCOCC3)CC2)nc1 [Example 307] |
| 6780 nM | 4.26 nM | O=C(NO)C1(S(=O)(=O)N2CCC(c3ccc(-c4ccc(F)cc4F)cn3)CC2)CCOCC1 [Example 308] |
| > 10000 nM | 0.355 nM | COCCN1CCC(C(=O)NO)(S(=O)(=O)N2CCC(c3ccc(CCC(F)(F)F)cc3)CC2)CC1 [Example 309] |
| > 10000 nM | 0.268 nM | COCCN1CCC(C(=O)NO)(S(=O)(=O)N2CCC(c3ccc(CCCC(F)(F)F)cc3)CC2)CC1 [Example 310] |
| > 10000 nM | 1.56 nM | COCCN1CCC(C(=O)NO)(S(=O)(=O)N2CCC(c3ncc(CC(C)C)s3)CC2)CC1 [Example 311] |
| > 10000 nM | 0.2 nM | COCCN1CCC(C(=O)NO)(S(=O)(=O)N2CCC(c3ccc(CCC(F)(F)C(F)(F)F)cc3)CC2)CC1 [Example 312] |
